# Data published in BigSolDB 2.1.
Compound,"solubility (mole fraction) (in n-hexane, 293.15 K)","solubility (mole fraction) (in n-hexane, 298.15 K)","solubility (mole fraction) (in n-hexane, 303.15 K)","solubility (mole fraction) (in n-hexane, 310.15 K)","solubility (mole fraction) (in n-hexane, 315.15 K)","solubility (mole fraction) (in n-octanol, 293.15 K)","solubility (mole fraction) (in n-octanol, 298.15 K)","solubility (mole fraction) (in n-octanol, 303.15 K)","solubility (mole fraction) (in n-octanol, 310.15 K)","solubility (mole fraction) (in n-octanol, 315.15 K)"
CC(=O)c1ccc(N=C2SCC3CCCN2C3)cc1 (stereo not given),0.000144,0.000176,0.000215,0.00028,0.000344,0.0075,0.0093,0.0118,0.0156,0.0202
Fc1ccc(N=C2SCC3CCCN2C3)cc1 (stereo not given),0.0015,0.00187,0.00224,0.00294,0.00359,0.0245,0.0296,0.0354,0.0469,0.0567
CCc1ccc(N=C2SCC3CCCN2C3)cc1 (stereo not given),0.000225,0.000289,0.000382,0.000537,0.000673,0.0124,0.0139,0.0163,0.0194,0.0224
FC(F)(F)c1ccc(N=C2SCC3CCCN2C3)cc1 (stereo not given),0.000248,0.000286,0.000339,0.000402,0.00046,0.0118,0.0132,0.0146,0.0171,0.0189
Cc1ccc(N=C2SCC3CCCN2C3)cc1Cl (stereo not given),7.1e-05,8.71e-05,0.000106,0.000134,0.000161,0.00305,0.00377,0.00454,0.00605,0.00736
CC(C)c1ccc(N=C2SCC3CCCN2C3)cc1 (stereo not given),0.00135,0.00158,0.00195,0.00246,0.00288,0.143,0.154,0.164,0.182,0.194
Cc1ccc(N=C2SCC3CCCN2C3)cc1 (stereo not given),0.0033,0.00465,0.00654,0.0104,0.0135,0.145,0.157,0.171,0.193,0.209
N#Cc1ccc(N=C2SCC3CCCN2C3)cc1 (stereo not given),0.000223,0.000271,0.000337,0.000422,0.000523,0.0087,0.0107,0.0131,0.0166,0.0202
